Earlier results as cited in patent US20160067252A1, “TRANSDERMAL DELIVERY OF SILDENAFIL AND OTHER PHOSPHODIESTERASE TYPE 5 INHIBITORS” (STRATEGIC SCIENCE & TECHNOLOGIES, LLC, priority 2013, published 2016).

Compared with `CN1CC(=O)N2[C@H](c3ccc4c(c3)OCO4)c3[nH]c4ccccc4c3C[C@@H]2C1=O` [tadalafil], `CCCOc1ccc(S(=O)(=O)N2CCN(CCO)CC2)cc1-c1nc2c(CCC)cn(CC)c2c(=O)[nH]1` [mirodenafil] is lower in pKa: 18 for the first, 6.0 for the second.

For `CCCOc1ccc(S(=O)(=O)NCCC2CCCN2C)cc1-c1nc2c(CCC)nn(C)c2c(=O)[nH]1` (stereo not drawn) [udenafil], the pKa is listed as 10.53.
